Test results: patent US20250195603A1, “COMPOSITION FOR PREVENTING OR TREATING DENTAL CARIES” (HYSENSBIO CO., LTD., priority 2022, published 2025)

Legend:
Assay type in all cases: cell-based
[1] = test system: human dental pulp cells; assay: Viability of human dental pulp cells in inflammatory environment (MTT); conditions: 10 μg/mL LPS alone, vs negative control
Procedure: To measure the cell viability, human dental pulp cells were inoculated in a 96-well plate at 5×10^3 cells/well and treated with 150 μL of a 3-(4,5-dimethyl-2-thiazolyl)-2,5-diphenyl-tetrazolium bromide (MTT, Medifab Co. Ltd.) solution for about two hours on days 1, 3, and 5, and the absorbance of the solution dissolved in DMSO was measured at 570 nm.
(§1) All experiments using human pulp cells were approved by the Institutional Review Board (IRB; S-D20140007) of the Seoul National University Dental Hospital and conducted in accordance with the guidelines and regulations of the institution. The third molars (wisdom teeth) were extracted from patients who signed the consent forms at the Seoul National University Dental Hospital, and pulp cells were isolated using a previously reported method (Choung et al., 2016). The teeth were cut open, the internal pulp was separated using forceps, and the pulp tissue was finely minced into 60-mm diameter cell culture dishes. The finely minced pulp tissue was then covered with a cover glass and cultured in a cell culture medium to isolate human pulp cells. […]

[2] = test system: human pulp cells; assay: Wound-healing model of human pulp cells (scratch); conditions: LPS only, 24 hours after scratch
Procedure: Human pulp cells were inoculated in a 6-well plate at 1×10^5 cells/well, and the next day, the central portion was scratched with the tip of a 200 μL pipette, and the rate of cell growth was compared 24 hours later.
as §1
Cell photographs were taken using an optical microscope using a 10× objective lens, and the photographs were analyzed using the ImageJ software program.

[3] = test system: human dental pulp cells; assay: Mineralization ability of human dental pulp cells (alizarin red S); conditions: LPS alone
Procedure: To this end, human dental pulp cells were inoculated in each 6-well dish at 1×10^5 cells/well and then cultured in a differentiation medium containing ascorbic acid (50 μg/mL) and beta-glycerophosphate (10 mM) for 7, 14, and 21 days from the next day.
as §1, with “a covered” for “a cover”
To compare the amount of mineralized matrix, the samples were fixed overnight at 4° C. with 4% paraformaldehyde (PFA), then treated with 40 mM alizarin red S (pH 4.2) at 25° C. for 30 minutes. After that, 0.5 mL of sodium dodecyl sulfate dissolved in 0.5 N hydrochloric acid was applied, and the samples were placed on a shaker for 30 minutes, and the absorbance was measured at 405 nm.

[4] = test system: human dental pulp cells; assay: Expression of inflammatory factors (RT-PCR) in LPS-treated human dental pulp cells; conditions: 10 μg/mL LPS only
Procedure: To confirm the preventive and therapeutic effects of a pharmaceutical composition (KH002) in stage 4 dental caries in which inflammation occurred after cells are affected by dental caries, human dental pulp cells were treated with lipopolysaccharide (LPS) and the pharmaceutical composition (KH002), and the expression of inflammatory factors was compared.
as §1, with “dishes.” for “dishes. The finely minced pulp tissue was then covered with a cover glass and cultured in a cell culture medium to isolate human pulp cells.”
A reverse transcription polymerase chain reaction (RT-PCR) was performed to compare the expression of inflammatory factors, and the ratio of the expression level of each factor to the expression level of glyceraldehyde 3-phosphate dehydrogenase (GAPDH) was confirmed for quantitative comparison (FIG. 3).

lipopolysaccharide [LPS]
viability of dental pulp cells [1]: significant decrease | wound healing ability as a ratio to the control group [2]: about 50 % of the control group | size of the mineral nodules ([3]; day 21, compared to control group): significantly decreased | amount of mineralized matrix ([3]; days 7, 14, and 21, compared to control group): significantly decreased | expression of inflammatory factors TNF-α, IL-1α, IL-1β, IL-6, CXCL10, iNOS, and COX2 (ratio to GAPDH) [4]: significantly increased
